{"source": "patent US8034314B2", "about": "“Photoreactive compound specifically binding to calcium binding proteins” (priority 2004, dated 2011)", "key": {"[1]": {"molecular_target": "T1, Ca2+-pump (SERCA) of skeletal muscle sarcoplasmic reticulum (Oryctolagus cuniculus, UniProt P04191)", "T1 construct": "Sarcoplasmic reticulum (SR) membranes were prepared from rabbit fast twitch skeletal muscle; from tissue; host or cells: rabbit fast twitch skeletal muscle SR membranes", "test": "Ca2+ uptake/accumulation in SR membranes (Ca2+-pump activity)", "type": "biochemical, rabbit", "description": "(§1) Sarcoplasmic reticulum (SR) membranes were prepared from rabbit fast twitch skeletal muscle as described by Saito [Saito et al.: J. Cell Biol. 99 (1984) 875-85]. Mitochondria were isolated from rat liver as described by us previously [Gincel D. et al.: Biochem J. 358 (2001) 147-55]. VDAC was purified by a method developed in our laboratory, using columns of hydroxyapatite and reactive red agarose [Gincel D. et al.: J. Bioenerget. Biomembr. 32 (2000) 571-83].\n(§2) Ca^2+-accumulation in freshly prepared mitochondria (0.5 mg/ml) was assayed for 1 to 20 minutes at 30° C. in the presence of 225 mM mannitol, 75 mM sucrose, 120 μM CaCl2 (containing 3×10^4 cpm/nmol ^45Ca^2+), 5 mM HEPES/KOH pH 7.0, and 5 mM succinate with 0.1 mM Pi, or 4 mM MgCl2 with 3 mM ATP. The Ca^2+-uptake was terminated by rapid Millipore filtration, followed by a wash with 5 ml of 0.15 M KCl. The Ca^2+-accumulation in SR was determined as described previously [Shoshan-Barmatz V. & Shaineberg A.: Biochim. Biophys. Acta 1065 (1991) 82-8]. Electron transport from succinate to cytochrome c was described in above cited article [Gincel D. et al.: J. Bioenerget. Biomembr. 32 (2000) 571-83].\nThe preparation of SR membranes from skeletal muscle, and the measurement of Ca^2+-accumulation were carried out as described above.\n(§3) The hexavalent RuR and the trivalent Ru360 have been employed in various studies as inhibitors of Ca^2+-dependent reactions. As shown here, even with no photoactivation, AzRu, in contrast to RuR and Ru360, was effective in inhibiting the SR Ca^2+-pump (Table 3). […] This may open the way to inhibit other Ca^2+-dependent activities that are not sensitive to RuR, such as the plasma membrane Ca^2+-ATPase. […] RuR was employed to improve mitochondrial production in ischemic reperfused pig myocardium, was employed in the nervous system to follow neuronal death progress and can act as an anti-oxidant in certain conditions. Considering the potent activity of AzRu in RuR-insensitive reactions (see Table 3), its applications in various biological studies should be explored. Ca^2+ accumulation in SR and mitochondria was assayed as described above in the absence and presence of different concentrations of RuR (0.05-100 μM), Ru360 (0.01-100 μM) or AzRu (0.1-100 μM). The concentration required for 50% inhibition (IC50) was derived from the plot of Ca^2+ accumulation activity or ryanodine binding as a function of the reagent concentration. The results are the mean±SEM of 3 to 5 experiments (Table 3)."}, "[2]": {"tested_on": "mitochondrial uniporter (Ca2+ uptake in mitochondria)", "test": "Ca2+ uptake/accumulation in isolated mitochondria", "type": "biochemical, rat", "description": "as §1, §2\nThe effect of AzRu on mitochondrial process of electron transport from the donor succinate to the acceptor cytochrome c was characterized as described above. Although said electron transfer involves several dozens electron transfer carriers, this reaction was not affected by azido-ruthenium of this invention.\nas §3"}, "[3]": {"molecular_target": "T2, ryanodine receptor (RyR) / Ca2+-release channel (Oryctolagus cuniculus, UniProt P11716)", "T2 construct": "from tissue; host or cells: rabbit fast twitch skeletal muscle SR membranes", "T2 sequence (P11716 whole entry)": "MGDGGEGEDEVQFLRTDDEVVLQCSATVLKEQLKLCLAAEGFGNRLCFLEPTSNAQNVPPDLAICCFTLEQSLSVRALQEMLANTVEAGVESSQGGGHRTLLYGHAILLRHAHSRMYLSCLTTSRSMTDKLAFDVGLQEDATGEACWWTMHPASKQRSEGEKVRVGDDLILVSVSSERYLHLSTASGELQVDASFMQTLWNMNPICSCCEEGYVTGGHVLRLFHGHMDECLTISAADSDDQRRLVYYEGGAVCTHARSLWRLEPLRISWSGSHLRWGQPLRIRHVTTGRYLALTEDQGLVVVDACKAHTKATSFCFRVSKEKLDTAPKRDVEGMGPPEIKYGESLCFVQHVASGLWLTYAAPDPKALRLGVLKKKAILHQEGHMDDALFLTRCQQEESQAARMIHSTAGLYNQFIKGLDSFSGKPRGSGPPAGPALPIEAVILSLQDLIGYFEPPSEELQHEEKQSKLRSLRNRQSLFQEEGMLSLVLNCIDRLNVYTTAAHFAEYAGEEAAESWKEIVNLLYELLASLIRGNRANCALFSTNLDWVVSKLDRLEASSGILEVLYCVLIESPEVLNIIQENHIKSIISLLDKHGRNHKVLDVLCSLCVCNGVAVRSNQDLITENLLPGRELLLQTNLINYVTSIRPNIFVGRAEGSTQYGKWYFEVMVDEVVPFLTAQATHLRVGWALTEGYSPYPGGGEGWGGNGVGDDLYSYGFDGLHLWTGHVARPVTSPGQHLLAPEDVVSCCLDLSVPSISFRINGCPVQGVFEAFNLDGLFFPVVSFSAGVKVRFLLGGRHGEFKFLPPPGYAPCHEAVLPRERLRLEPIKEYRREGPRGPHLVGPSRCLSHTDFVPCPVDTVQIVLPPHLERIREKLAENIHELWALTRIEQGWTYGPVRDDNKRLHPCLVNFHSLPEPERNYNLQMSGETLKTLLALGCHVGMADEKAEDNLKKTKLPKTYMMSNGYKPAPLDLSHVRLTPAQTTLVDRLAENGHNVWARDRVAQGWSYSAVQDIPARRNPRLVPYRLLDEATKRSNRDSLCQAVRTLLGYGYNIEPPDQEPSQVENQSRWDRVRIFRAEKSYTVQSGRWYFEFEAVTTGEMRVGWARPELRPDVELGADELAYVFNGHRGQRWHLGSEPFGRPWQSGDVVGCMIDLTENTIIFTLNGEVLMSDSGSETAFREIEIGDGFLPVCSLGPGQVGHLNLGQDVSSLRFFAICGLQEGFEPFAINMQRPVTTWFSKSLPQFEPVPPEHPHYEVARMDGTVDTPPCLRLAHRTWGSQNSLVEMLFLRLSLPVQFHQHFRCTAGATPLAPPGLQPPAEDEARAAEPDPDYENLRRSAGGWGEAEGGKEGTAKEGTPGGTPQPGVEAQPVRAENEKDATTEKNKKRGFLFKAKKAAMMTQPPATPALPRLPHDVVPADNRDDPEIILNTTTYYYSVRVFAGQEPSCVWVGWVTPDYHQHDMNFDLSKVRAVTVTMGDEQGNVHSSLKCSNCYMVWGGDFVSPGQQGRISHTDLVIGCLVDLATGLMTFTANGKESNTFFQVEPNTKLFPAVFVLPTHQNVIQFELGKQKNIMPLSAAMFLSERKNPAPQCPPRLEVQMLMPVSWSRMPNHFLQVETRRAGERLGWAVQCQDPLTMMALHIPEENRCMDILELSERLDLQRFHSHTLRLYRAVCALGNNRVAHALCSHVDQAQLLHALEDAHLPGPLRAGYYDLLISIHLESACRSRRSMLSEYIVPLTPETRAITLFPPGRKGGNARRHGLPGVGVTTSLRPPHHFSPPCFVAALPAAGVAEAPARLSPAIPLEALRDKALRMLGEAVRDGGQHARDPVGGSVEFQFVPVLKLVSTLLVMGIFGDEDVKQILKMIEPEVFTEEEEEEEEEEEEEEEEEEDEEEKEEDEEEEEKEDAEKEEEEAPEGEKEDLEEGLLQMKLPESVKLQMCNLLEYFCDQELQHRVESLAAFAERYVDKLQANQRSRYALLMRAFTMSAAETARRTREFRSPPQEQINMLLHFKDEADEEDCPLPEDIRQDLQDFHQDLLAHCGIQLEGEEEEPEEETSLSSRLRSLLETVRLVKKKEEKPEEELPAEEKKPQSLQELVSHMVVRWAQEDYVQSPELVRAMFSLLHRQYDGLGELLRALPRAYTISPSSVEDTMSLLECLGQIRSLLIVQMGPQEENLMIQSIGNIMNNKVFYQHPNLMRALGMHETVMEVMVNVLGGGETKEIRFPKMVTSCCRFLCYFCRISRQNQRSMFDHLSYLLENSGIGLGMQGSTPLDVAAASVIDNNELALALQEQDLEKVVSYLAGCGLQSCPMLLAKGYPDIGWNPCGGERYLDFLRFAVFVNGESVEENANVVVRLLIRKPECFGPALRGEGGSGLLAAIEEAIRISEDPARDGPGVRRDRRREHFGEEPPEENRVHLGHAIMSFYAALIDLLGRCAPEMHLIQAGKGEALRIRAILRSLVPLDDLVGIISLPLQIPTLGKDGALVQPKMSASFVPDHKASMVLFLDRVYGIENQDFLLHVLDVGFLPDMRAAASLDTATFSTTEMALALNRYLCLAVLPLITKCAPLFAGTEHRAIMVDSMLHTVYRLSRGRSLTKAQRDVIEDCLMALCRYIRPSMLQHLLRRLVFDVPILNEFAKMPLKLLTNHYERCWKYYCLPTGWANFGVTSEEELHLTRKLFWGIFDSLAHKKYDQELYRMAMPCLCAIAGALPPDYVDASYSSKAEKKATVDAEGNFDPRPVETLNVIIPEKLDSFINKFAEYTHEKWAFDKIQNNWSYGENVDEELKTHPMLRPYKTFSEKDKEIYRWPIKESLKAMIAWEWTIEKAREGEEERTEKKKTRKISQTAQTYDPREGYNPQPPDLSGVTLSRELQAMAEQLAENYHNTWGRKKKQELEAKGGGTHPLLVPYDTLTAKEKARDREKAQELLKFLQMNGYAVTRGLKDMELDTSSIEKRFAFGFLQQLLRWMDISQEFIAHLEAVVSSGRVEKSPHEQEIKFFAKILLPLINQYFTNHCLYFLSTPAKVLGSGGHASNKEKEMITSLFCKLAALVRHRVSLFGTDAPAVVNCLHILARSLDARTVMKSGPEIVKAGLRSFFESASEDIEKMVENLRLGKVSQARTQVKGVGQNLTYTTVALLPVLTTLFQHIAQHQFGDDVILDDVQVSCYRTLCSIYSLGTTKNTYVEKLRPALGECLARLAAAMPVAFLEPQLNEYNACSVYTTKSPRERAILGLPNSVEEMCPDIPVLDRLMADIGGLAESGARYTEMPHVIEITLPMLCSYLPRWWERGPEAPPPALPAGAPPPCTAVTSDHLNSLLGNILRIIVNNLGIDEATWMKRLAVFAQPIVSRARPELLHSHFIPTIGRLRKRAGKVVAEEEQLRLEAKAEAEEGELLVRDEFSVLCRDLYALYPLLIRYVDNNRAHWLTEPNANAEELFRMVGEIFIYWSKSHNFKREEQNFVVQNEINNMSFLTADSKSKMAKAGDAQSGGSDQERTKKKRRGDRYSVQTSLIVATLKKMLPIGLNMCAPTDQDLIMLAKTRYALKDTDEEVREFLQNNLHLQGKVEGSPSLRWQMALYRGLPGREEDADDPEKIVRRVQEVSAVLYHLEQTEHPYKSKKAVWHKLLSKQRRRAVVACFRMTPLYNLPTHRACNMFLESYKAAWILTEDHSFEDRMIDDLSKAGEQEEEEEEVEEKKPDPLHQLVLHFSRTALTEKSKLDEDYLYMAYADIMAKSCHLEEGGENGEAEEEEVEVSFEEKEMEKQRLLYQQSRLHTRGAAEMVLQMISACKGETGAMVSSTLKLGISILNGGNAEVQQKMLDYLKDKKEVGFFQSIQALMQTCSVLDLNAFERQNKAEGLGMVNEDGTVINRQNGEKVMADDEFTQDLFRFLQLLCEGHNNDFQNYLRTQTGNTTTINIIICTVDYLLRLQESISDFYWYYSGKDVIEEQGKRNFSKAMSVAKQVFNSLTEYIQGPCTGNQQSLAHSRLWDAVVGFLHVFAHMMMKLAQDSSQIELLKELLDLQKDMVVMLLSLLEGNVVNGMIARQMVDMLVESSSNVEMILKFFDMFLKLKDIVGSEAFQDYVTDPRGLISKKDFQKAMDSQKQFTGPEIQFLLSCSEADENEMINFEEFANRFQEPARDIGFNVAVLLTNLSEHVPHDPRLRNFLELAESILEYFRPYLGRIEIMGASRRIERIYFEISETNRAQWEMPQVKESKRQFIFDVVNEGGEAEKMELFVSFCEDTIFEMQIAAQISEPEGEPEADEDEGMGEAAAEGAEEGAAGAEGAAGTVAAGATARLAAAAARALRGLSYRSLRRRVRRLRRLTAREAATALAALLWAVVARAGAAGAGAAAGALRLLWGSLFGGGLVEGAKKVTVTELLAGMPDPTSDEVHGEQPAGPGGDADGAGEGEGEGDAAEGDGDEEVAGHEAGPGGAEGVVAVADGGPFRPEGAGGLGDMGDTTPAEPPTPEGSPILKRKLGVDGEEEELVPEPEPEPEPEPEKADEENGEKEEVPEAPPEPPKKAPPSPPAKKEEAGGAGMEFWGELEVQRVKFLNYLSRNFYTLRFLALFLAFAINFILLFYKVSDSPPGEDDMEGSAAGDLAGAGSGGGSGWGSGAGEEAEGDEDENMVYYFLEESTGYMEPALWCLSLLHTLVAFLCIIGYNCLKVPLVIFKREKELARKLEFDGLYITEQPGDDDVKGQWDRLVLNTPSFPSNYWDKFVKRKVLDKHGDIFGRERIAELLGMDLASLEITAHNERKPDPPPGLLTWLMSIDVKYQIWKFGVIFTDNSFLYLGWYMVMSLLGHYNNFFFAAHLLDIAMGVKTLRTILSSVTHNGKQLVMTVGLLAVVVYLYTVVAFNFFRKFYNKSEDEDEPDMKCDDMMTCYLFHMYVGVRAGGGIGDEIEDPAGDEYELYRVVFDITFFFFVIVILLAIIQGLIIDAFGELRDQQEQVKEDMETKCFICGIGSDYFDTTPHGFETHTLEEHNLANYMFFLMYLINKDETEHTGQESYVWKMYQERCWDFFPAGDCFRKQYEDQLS", "test": "[3H]ryanodine binding to SR membranes", "set-up": "species or system rabbit", "description": "as §1\nFor the determination of [^3H]ryanodine binding, SR membranes were incubated for 20-60 min at 37° C. in a standard binding solution containing 1M NaCl, 20 mM MOPS (pH 7.4), 50 μM free Ca^2+ and 20 nM [^3H]ryanodine. Unbound ryanodine was separated from protein-bound ryanodine by vacuum filtration of the sample through nitrocellulose filters (0.45 μm), followed by two washes with 4 ml ice-cold buffer containing 0.2 M NaCl, 10 mM MOPS (pH 7.4) and 50 μM CaCl2. The retained radioactivity in the dried filters was determined by liquid scintillation counting. Specific binding of [^3H]ryanodine was defined as the difference between the binding in the presence of 20 nM [^3H]ryanodine and in the presence of 20 μM unlabeled ryanodine.\nas §3"}, "VDAC": {"molecular_target": "T3, VDAC (Rattus norvegicus, UniProt Q9Z2L0)", "T3 construct": "VDAC was purified by a method developed in our laboratory, using columns of hydroxyapatite and reactive red agarose; from tissue; host or cells: mitochondria", "test": "VDAC channel conductance in planar lipid bilayer", "type": "biochemical", "description": "as §1\nReconstitution of purified VDAC into planar lipid bilayer (PLB), single channel current recording, and data analysis were carried out as described in above mentioned publication.\nVDAC is a channel protein which transports Ca^2+ across the mitochondrial outer membrane. […] Purified VDAC was reconstituted into a planar lipid bilayer as multichannels. The channel activity was measured as the ions passed the current across the bilayer in response to a voltage gradient of 10 mV, as a function of time. In the absence of AzRu, VDAC is stable in a long-lived, fully opened state and remains open for up to 2 hours of recording. However, addition of AzRu to the same channel induced VDAC closure, in a time-dependent manner. Ca^2+, in the presence of 1 M NaCl, prevented the inhibitory effect of AzRu on VDAC activity."}, "Peroxidase": {"molecular_target": "T4, Peroxidase (Armoracia rusticana, UniProt P00433)", "T4 construct": "purchased Sigma", "test": "Peroxidase activity", "type": "biochemical, horseradish", "settings": "AzRu 20 μM; mean ± SEM", "source_text": "(§4) Unlabelled ryanodine was obtained from Calbiochem. […] Ruthenium chloride was purchased from Aldrich."}, "CaMKII-dependent GAPDH": {"tested_on": "CaMKII-dependent GAPDH", "test": "CaMKII-dependent GAPDH activity", "type": "biochemical", "settings": "AzRu 20 μM; mean ± SEM"}, "[4]": {"tested_on": "Ca2+-dependent mitochondrial swelling (PTP opening)", "test": "Ca2+-dependent mitochondrial swelling (PTP opening)", "type": "biochemical, rat", "settings": "AzRu 20 μM; PTP opening was completely inhibited at this concentration", "description": "as §1"}, "Yeast hexokinase": {"tested_on": "Yeast hexokinase", "test": "Yeast hexokinase activity", "type": "biochemical", "settings": "mean ± SEM", "source_text": "as §4"}, "Brain hexokinase": {"molecular_target": "Brain hexokinase (Homo sapiens, UniProt P19367)", "test": "Brain hexokinase activity", "type": "biochemical", "settings": "mean ± SEM"}, "Pyruvate kinase": {"molecular_target": "T5, Pyruvate kinase (Oryctolagus cuniculus, UniProt P11974)", "T5 construct": "purchased Sigma", "test": "Pyruvate kinase activity", "type": "biochemical", "settings": "AzRu 20 μM; mean ± SEM", "source_text": "as §4"}, "[5]": {"settings": "+UV (photoactivation), mean ± SEM"}, "[6]": {"settings": "no UV, mean ± SEM of 3 to 5 experiments"}}, "data": [{"substance": "azido-ruthenium [AzRu]", "values": [{"measurement": "IC50", "setting": "[1]; [5]", "value": "1010 ± 95", "unit": "nM"}, {"measurement": "Activity (% of control), Ca2+ uptake in SR (SERCA)", "setting": "[1]; AzRu 20 μM, mean ± SEM of 3 to 6 experiments", "value": "13 ± 6 % of control"}, {"measurement": "Change of sensitivity of the Ca2+-pump activity to the reagent by photoactivation", "setting": "[1]; UV irradiation, SR membranes", "value": "increased more than two-fold"}, {"measurement": "IC50", "setting": "[1]; no photoactivation, mean ± SEM of 3 to 5 experiments", "value": "4910 ± 55", "unit": "nM"}, {"measurement": "Activity (% of control), Ca2+ uptake in mitochondria", "setting": "[2]; AzRu 20 μM, mean ± SEM", "value": "11 ± 4 % of control"}, {"measurement": "Effect on Ca2+ transport in mitochondria", "setting": "[2]; isolated mitochondria, FIG. 7", "value": "inhibited"}, {"measurement": "IC50", "setting": "[2]; [6]", "value": "1780 ± 120", "unit": "nM"}, {"measurement": "IC50", "setting": "[3]; [5]", "value": "1210 ± 60", "unit": "nM"}, {"measurement": "Activity (% of control), Ryanodine binding by SR RyR", "setting": "[3]; AzRu 20 μM, mean ± SEM", "value": "18 ± 6 % of control"}, {"measurement": "Effect on binding of ryanodine to SR membranes", "setting": "[3]; FIG. 8", "value": "strongly inhibited"}, {"measurement": "IC50", "setting": "[3]; [6]", "value": "2900 ± 170", "unit": "nM"}, {"measurement": "Activity (% of control), VDAC conductance", "setting": "VDAC; AzRu 20 μM, mean ± SEM", "value": "19 ± 5 % of control"}, {"measurement": "Effect on VDAC conductance in multi-channel experiments", "setting": "VDAC; all voltages tested", "value": "decreased VDAC conductance"}, {"measurement": "Effect on VDAC channel activity", "setting": "VDAC; purified VDAC in planar lipid bilayer, voltage gradient 10 mV", "value": "inhibited the channel activity of VDAC"}, {"measurement": "Activity (% of control), Peroxidase", "setting": "Peroxidase", "value": "39 ± 4 % of control"}, {"measurement": "Activity (% of control), CaMKII-dependent GAPDH", "setting": "CaMKII-dependent GAPDH", "value": "6 ± 2 % of control"}, {"measurement": "Activity (% of control), Ca2+-dependent mitochondrial swelling", "setting": "[4]", "value": "0 % of control"}, {"measurement": "Activity (% of control), Yeast hexokinase", "setting": "Yeast hexokinase; AzRu 20 μM", "value": "77 ± 5 % of control"}, {"measurement": "Activity (% of control), Yeast hexokinase", "setting": "Yeast hexokinase; AzRu 100 μM", "value": "64 ± 4 % of control"}, {"measurement": "Activity (% of control), Brain hexokinase", "setting": "Brain hexokinase; AzRu 20 μM", "value": "73 ± 7 % of control"}, {"measurement": "Activity (% of control), Brain hexokinase", "setting": "Brain hexokinase; AzRu 100 μM", "value": "61 ± 3 % of control"}, {"measurement": "Activity (% of control), Pyruvate kinase", "setting": "Pyruvate kinase", "value": "97 ± 7 % of control"}]}]}
